Among the data in patent US20260042762A1 (Kymera Therapeutics, Inc., priority 2018, published 2026) are Dmax values, retold here.

SMILES strings stand for the structures. Bounds are passed on as bounds.

This test addresses T1, MerTK (Homo sapiens, UniProt Q12866).
T1 construct: endogenous in cells; host or cells: Jurkat cells
T1 sequence (Q12866 21-999): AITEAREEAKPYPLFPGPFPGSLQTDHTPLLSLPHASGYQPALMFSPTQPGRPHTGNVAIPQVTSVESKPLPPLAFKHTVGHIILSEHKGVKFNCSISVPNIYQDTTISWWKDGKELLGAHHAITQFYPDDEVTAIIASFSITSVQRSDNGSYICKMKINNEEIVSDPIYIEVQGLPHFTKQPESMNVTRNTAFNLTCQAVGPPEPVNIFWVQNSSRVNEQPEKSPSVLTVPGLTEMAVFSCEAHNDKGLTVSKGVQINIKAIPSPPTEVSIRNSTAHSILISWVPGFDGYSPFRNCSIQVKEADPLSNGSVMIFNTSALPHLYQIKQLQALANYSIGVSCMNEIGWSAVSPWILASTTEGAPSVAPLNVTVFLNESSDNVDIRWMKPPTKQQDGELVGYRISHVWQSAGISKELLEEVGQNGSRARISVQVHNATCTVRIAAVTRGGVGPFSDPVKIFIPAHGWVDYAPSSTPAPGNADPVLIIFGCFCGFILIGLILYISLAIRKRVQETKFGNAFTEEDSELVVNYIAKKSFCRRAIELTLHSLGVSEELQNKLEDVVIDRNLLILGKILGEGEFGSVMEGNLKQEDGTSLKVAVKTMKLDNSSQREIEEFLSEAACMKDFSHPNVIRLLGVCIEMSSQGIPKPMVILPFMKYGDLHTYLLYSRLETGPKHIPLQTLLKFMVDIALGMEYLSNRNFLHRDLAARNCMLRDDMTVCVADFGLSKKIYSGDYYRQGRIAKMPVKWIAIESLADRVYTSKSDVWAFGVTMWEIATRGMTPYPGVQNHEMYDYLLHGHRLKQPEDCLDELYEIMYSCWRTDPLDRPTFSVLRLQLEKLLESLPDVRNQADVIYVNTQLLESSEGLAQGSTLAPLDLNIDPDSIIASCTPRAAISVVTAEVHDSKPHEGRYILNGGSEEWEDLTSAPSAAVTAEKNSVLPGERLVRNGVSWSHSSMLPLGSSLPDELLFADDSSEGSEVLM
As to the kind of experiment: MerTk degradation in Jurkat cells (Western blot). It counts as cell-based. The note with it: Jurkat, 4 h, 0.001-1 μM, 4 hour-incubation at 37° C., read-out: Jurkat Max % MerTK Degradation. The essentials: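 Jurkat cells treated 4 h at 37 °C with compound at 0.001-1 μM final. RIPA lysates quantified by BCA, then MerTK probed by Western blot against actin loading control with IR-dye secondaries and Odyssey imaging.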
For orientation: In western blotting, separated proteins are transferred to a membrane and probed.
Take `Cn1c(=O)n(C2CCC(=O)NC2=O)c2ccc(CCN3CCC(OCCN4CCN(Cc5ccc(-c6cn([C@H]7CC[C@H](O)CC7)c7nc(NCCC(F)(F)F)ncc67)cc5)CC4)C3)cc21` (stereo partly drawn) [I-124, 3-(3-methyl-2-oxo-5-[2-[3-(2-[4-[(4-[7-[trans-4-hydroxycyclohexyl]-2-[(3,3,3-trifluoropropyl)amino]-7H-pyrrolo[2,3-d]pyrimidin-5-yl]phenyl)methyl]piperazin-1-yl]ethoxy)pyrrolidin-1-yl]ethyl]-2,3-dihydro-1H-1,3-benzodiazol-1-y1)piperidine-2,6-dione; tris(formic acid)]: the Dmax was over 50%.

In the case of `O=C1CC[C@H](n2c3ccc(CCCOCCOCCN4CCN(Cc5ccc(-c6cn([C@H]7CC[C@H](O)CC7)c7nc(NCCC(F)(F)F)ncc67)cc5)CC4)cc3c3cccnc32)C(=O)N1` [I-125, 3-(6-[3-[2-(2-[4-[(4-[7-[trans-4-hydroxycyclohexyl]-2-[(3,3,3-trifluoropropyl)amino]-7H-pyrrolo[2,3-d]pyrimidin-5-yl]phenyl)methyl]piperazin-1-yl]ethoxy)ethoxy]propyl]-9H-pyrido[2,3-b]indol-9-y1)piperidine-2,6-dione], the Dmax was over 50%.

As for `O=C1CC[C@H](n2c3ccccc3c3c(CCCOCCOCCN4CCN(Cc5ccc(-c6cn([C@H]7CC[C@H](O)CC7)c7nc(NCCC(F)(F)F)ncc67)cc5)CC4)ccnc32)C(=O)N1` [I-126, 3-(4-[3-[2-(2-[4-[(4-[7-[trans-4-hydroxycyclohexyl]-2-[(3,3,3-trifluoropropyl)amino]-7H-pyrrolo[2,3-d]pyrimidin-5-yl]phenyl)methyl]piperazin-1-yl]ethoxy)ethoxy]propyl]-9H-pyrido[2,3-b]indol-9-yl)piperidine-2,6-dione], the Dmax is over 50%.

In the case of `O=C1CC[C@H](n2c3cc(CCCOCCOCCN4CCN(Cc5ccc(-c6cn([C@H]7CC[C@H](O)CC7)c7nc(NCCC(F)(F)F)ncc67)cc5)CC4)ccc3c3cccnc32)C(=O)N1` [I-127, 3-(7-[3-[2-(2-[4-[(4-[7-[trans-4-hydroxycyclohexy1]-2-[(3,3,3-trifluoropropyl)amino]-7H-pyrrolo[2,3-d]pyrimidin-5-yl]phenyl)methyl]piperazin-1-yl]ethoxy)ethoxy]propyl]-9H-pyrido[2,3-b]indol-9-yl)piperidine-2,6-dione], the Dmax lay within 20 to 50%.

In the case of `Cn1c(=O)n([C@H]2CCC(=O)NC2=O)c2ccc(CCN3CC(OCCN4CCN(Cc5ccc(-c6cn([C@H]7CC[C@H](O)CC7)c7nc(NCCC(F)(F)F)ncc67)cc5)CC4)C3)cc21` [I-128, 3-(3-methyl-2-oxo-5-[2-[3-(2-[4-[(4-[7-[trans-4-hydroxycyclohexyl]-2-[(3,3,3-trifluoropropyl)amino]pyrrolo[2,3-d]pyrimidin-5-yl]phenyl)methyl]piperazin-1-yl]ethoxy)azetidin-1-yl]ethyl]-1,3-benzodiazol-1-y1)piperidine-2,6-dione], the Dmax was in the range of 20 to 50%.

Consider `Cn1c(=O)n([C@H]2CCC(=O)NC2=O)c2ccc(CCOCCN3CC(N4CCN(Cc5ccc(-c6cn([C@H]7CC[C@H](O)CC7)c7nc(NCCC(F)(F)F)ncc67)cc5)CC4)C3)cc21` [I-129, 3-(3-methyl-2-oxo-5-[2-[2-(3-[4-[(4-[7-[trans-4-hydroxycyclohexy1]-2-[(3,3,3-trifluoropropyl)amino]-7H-pyrrolo[2,3-d]pyrimidin-5-y1]phenyl)methyl]piperazin-1-yl]azetidin-1-yl)ethoxy]ethyl]-2,3-dihydro-1H-1,3-benzodiazol-1-y1)piperidine-2,6-dione; formic acid], for which the Dmax is over 50%.

With `Cn1c(=O)n([C@H]2CCC(=O)NC2=O)c2ccc(CCOCCN3CCC(N4CCN(Cc5ccc(-c6cn([C@H]7CC[C@H](O)CC7)c7nc(NCCC(F)(F)F)ncc67)cc5)CC4)CC3)cc21` [I-130, 3-(3-methyl-2-oxo-5-[2-[2-(4-[4-[(4-[7-[trans-4-hydroxycyclohexyl]-2-[(3,3,3-trifluoropropyl)amino]-7H-pyrrolo[2,3-d]pyrimidin-5-yl]phenyl)methyl]piperazin-1-yl]piperidin-1-y1)ethoxy]ethyl]-2,3-dihydro-1H-1,3-benzodiazol-1-y1)piperidine-2,6-dione], the Dmax was over 50%.

On to `Cn1c(=O)n(C2CCC(=O)NC2=O)c2ccc(CCOCCN3CCCC(N4CCN(Cc5ccc(-c6cn([C@H]7CC[C@H](O)CC7)c7nc(NCCC(F)(F)F)ncc67)cc5)CC4)C3)cc21` (stereo partly drawn) [I-131, 3-(3-methyl-2-oxo-5-[2-[2-(3-[4-[(4-[7-[trans-4-hydroxycyclohexyl]-2-[(3,3,3-trifluoropropyl)amino]-7H-pyrrolo[2,3-d]pyrimidin-5-yl]phenyl)methyl]piperazin-1-y1]piperidin-1-yl)ethoxy]ethyl]-2,3-dihydro-1H-1,3-benzodiazol-1-y1)piperidine-2,6-dione; formic acid], for which the Dmax was over 50%.

On to `Cn1c(=O)n(C2CCC(=O)NC2=O)c2ccc(CCOCCN3CCC(N4CCN(Cc5ccc(-c6cn([C@H]7CC[C@H](O)CC7)c7nc(NCCC(F)(F)F)ncc67)cc5)CC4)C3)cc21` (stereo partly drawn) [I-132, 3-(3-methyl-2-oxo-5-[2-[2-(3-[4-[(4-[7-[trans-4-hydroxycyclohexyl]-2-[(3,3,3-trifluoropropyl)amino]-7H-pyrrolo[2,3-d]pyrimidin-5-yl]phenyl)methyl]piperazin-1-yl]pyrrolidin-1-yl)ethoxy]ethyl]-2,3-dihydro-1H-1,3-benzodiazol-1-yl)piperidine-2,6-dione], for which the Dmax is over 50%.

With `O=C1CC[C@H](n2c3ccc(NCCOCCOCCN4CCN(Cc5ccc(-c6cn([C@H]7CC[C@H](O)CC7)c7nc(NCCC(F)(F)F)ncc67)cc5)CC4)cc3c3cccnc32)C(=O)N1` [I-133, 3-[6-([2-[2-(2-[4-[(4-[7-[trans-4-hydroxycyclohexyl]-2-[(3,3,3-trifluoropropyl)amino]pyrrolo[2,3-d]pyrimidin-5-yl]phenyl)methyl]piperazin-1-yl]ethoxy)ethoxy]ethyl]amino)pyrido[2,3-b]indol-9-yl]piperidine-2,6-dione; formic acid], the Dmax was over 50%.

As to `O=C1CC[C@H](n2c3cccc(CCCOCCOCCN4CCN(Cc5ccc(-c6cn([C@H]7CC[C@H](O)CC7)c7nc(NCCC(F)(F)F)ncc67)cc5)CC4)c3c3cccnc32)C(=O)N1` [I-134, 3-(5-[3-[2-(2-[4-[(4-[7-[trans-4-hydroxycyclohexy1]-2-[(3,3,3-trifluoropropyl)amino]pyrrolo[2,3-d]pyrimidin-5-yl]phenyl)methyl]piperazin-1-yl]ethoxy)ethoxy]propyl]pyrido[2,3-b]indol-9-y1)piperidine-2,6-dione], the Dmax is over 50%.

In the case of `Cn1c(=O)n([C@H]2CCC(=O)NC2=O)c2cccc(CCCOCCOCCN3CCN(Cc4ccc(-c5cn([C@H]6CC[C@H](O)CC6)c6nc(NCCC(F)(F)F)ncc56)cc4)CC3)c21` [I-135, 3-(3-methyl-2-oxo-4-[3-[2-(2-[4-[(4-[7-[trans-4-hydroxycyclohexyl]-2-[(3,3,3-trifluoropropyl)amino]pyrrolo[2,3-d]pyrimidin-5-yl]phenyl)methyl]piperazin-1-yl]ethoxy)ethoxy]propyl]-1,3-benzodiazol-1-y1)piperidine-2,6-dione], the Dmax is over 50%.
